Experimental data: US20040142972A1, “CNS target modulators” (Hypnion, Inc., priority 2001, published 2004)
Positions count from the first letter of the chain named. pIC50, pKi: −log10 of the molar value. Structures can show the parent of a compound that is named as a salt. Where two headings read alike, the source gives them in different places.

How the values were obtained:
Male Wistar rats = assay: Sleep-wakefulness, locomotor activity and body temperature monitoring (SCORE-2000) in rats
muscarinic1 binding site = molecular target: T1, muscarinic1 binding site (Bos taurus, UniProt F1N5C5); assay: biochemical
T1 sequence (F1N5C5 1-460): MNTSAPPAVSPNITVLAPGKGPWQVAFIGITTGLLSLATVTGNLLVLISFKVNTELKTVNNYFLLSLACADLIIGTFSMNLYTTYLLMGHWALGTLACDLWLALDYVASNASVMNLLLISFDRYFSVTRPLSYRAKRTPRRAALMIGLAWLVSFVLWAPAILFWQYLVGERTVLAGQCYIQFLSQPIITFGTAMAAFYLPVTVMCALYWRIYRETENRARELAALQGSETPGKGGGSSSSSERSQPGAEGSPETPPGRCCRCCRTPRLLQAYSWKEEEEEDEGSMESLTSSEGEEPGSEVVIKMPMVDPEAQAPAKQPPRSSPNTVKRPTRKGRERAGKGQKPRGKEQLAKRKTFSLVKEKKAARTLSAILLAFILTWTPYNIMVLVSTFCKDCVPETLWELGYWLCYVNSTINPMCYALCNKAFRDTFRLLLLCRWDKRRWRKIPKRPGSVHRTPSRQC

[1] = molecular target: T2, cloned muscarinic - M3 binding site (Homo sapiens, UniProt P20309); assay: Muscarinic M3 binding assay, [3H]-Scopolamine N-Methyl Chloride, human recombinant expressed in CHO cells; settings: for Ki: Table 6, human recombinant, read-out: Receptor Binding Data (Ki nM) M3
T2 construct: expressed in transfected cells; host or cells: CHO cells

histamine receptor, H1 = molecular target: T3, histamine receptor, H1 (Bos taurus, UniProt P30546); assay: H1 binding assay, displacement of [3H]Pyrilamine, bovine cerebellar membranes; settings: for Ki: Table 6, read-out: Receptor Binding Data (Ki nM) H1
T3 construct: from tissue; host or cells: bovine cerebellar membranes (per earlier reading)

[2] = molecular target: T4, cloned muscarinic - M1 binding site (Homo sapiens, UniProt P11229); assay: Muscarinic M1 binding assay, [3H]-Scopolamine N-Methyl Chloride, human recombinant expressed in CHO cells; settings: for Ki: Table 6, human recombinant, read-out: Receptor Binding Data (Ki nM) M1
T4 construct: expressed in transfected cells; host or cells: CHO cells
T4 sequence (P11229 1-460): T1 sequence (F1N5C5 1-460) with A206T, T265A, A315T, R331K, E335D

[3] = molecular target: T5, cloned muscarinic - M2 binding site (Homo sapiens, UniProt P08172); assay: Muscarinic M2 binding assay, [3H]-Scopolamine N-Methyl Chloride, human recombinant expressed in CHO cells; settings: for Ki: Table 6, human recombinant, read-out: Receptor Binding Data (Ki nM) M2
T5 construct: expressed in transfected cells; host or cells: CHO cells
T5 sequence (P08172 1-466): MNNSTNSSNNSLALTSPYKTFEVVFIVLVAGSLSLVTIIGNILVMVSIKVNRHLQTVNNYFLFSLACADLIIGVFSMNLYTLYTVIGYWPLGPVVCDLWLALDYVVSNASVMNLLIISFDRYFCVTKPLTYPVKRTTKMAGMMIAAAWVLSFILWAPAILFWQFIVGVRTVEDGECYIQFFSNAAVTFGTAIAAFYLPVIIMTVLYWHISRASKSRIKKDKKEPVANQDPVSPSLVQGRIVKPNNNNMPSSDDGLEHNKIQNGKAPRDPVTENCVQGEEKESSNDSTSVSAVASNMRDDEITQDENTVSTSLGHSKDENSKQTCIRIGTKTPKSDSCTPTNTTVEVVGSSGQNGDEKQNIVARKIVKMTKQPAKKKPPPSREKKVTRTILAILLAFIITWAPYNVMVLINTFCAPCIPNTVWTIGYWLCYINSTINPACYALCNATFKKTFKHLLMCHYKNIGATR

[4] = Series 11 compounds, Table 5, unit inferred, receptor source not given
[5] = Series 11 compounds, Table 5, unit inferred, receptor source not given, read-out: M3 Ki
[6] = Series 11 compounds, Table 5, unit inferred, read-out: H1 Ki
[7] = Series 11 compounds, Table 5, unit inferred, receptor source not given, read-out: M1 Ki
[8] = Series 11 compounds, Table 5, unit inferred, receptor source not given, read-out: M2 Ki
[9] = Series 11 compounds, Table 5, unit inferred

T2 sequence (P20309 whole entry): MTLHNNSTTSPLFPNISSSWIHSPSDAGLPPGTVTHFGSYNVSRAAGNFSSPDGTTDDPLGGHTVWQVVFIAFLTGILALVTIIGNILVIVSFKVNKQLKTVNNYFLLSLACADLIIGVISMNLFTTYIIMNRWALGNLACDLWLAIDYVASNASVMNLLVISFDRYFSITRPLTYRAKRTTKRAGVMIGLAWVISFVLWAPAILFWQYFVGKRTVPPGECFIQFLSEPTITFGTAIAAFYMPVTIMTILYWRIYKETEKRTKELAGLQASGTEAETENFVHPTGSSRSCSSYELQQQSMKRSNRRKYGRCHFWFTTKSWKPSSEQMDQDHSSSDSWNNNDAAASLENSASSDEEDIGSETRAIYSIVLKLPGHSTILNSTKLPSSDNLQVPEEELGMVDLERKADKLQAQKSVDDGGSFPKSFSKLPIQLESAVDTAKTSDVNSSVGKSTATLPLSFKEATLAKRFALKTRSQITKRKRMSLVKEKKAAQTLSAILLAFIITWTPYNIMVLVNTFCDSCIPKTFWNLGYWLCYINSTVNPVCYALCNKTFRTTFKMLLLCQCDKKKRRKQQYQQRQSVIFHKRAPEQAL
T3 sequence (P30546 whole entry): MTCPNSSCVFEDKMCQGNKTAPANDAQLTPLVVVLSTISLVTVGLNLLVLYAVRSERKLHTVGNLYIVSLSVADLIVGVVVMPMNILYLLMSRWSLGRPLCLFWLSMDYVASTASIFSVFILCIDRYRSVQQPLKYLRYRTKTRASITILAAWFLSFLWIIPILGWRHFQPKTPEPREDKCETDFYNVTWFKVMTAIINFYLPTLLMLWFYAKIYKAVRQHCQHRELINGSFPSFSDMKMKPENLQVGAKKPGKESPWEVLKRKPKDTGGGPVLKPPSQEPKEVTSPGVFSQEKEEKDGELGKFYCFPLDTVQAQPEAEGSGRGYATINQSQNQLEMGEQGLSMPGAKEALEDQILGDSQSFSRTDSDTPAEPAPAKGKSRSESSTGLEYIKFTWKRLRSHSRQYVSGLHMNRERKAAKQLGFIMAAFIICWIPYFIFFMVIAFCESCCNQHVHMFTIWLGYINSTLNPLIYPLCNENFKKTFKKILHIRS

In the case of `Cc1ccc(-c2nc3ccc(C)cn3c2CC(=O)N(C)C)cc1` [Ambien, Zolpidem, reference compound], the “Motor Inhibition” value (Male Wistar rats; 30 mg/kg IP, at CT-18, rats) was “YES”, the “REM Inhibition” value (Male Wistar rats; 30 mg/kg IP, at CT-18, rats) was “YES” and the “Rebound Insomnia” value (Male Wistar rats; 30 mg/kg IP, at CT-18, rats) was “YES”.
In the case of `CN1[C@@H]2CC[C@H]1C[C@@H](OC(=O)C(CO)c1ccccc1)C2` (stereo partly drawn) [Atropine], the pKi (muscarinic1 binding site) was 9.40.
`O=C(O)CCN1CCC(OC(c2ccccc2)c2ccccc2)CC1` [Compound 6a, 3-[4-(dipbenylmethoxy)piperidin-1-yl]propanoic acid hydrochloride] showed a Ki [1] of 8900 nM, a Ki (histamine receptor, H1) of 56.1 nM and a Ki [2] of over 10000 nM. The Ki [3] was over 10000 nM.
Molecule `O=C(O)CN1CCC(=C2c3ccccc3COc3ccccc32)CC1` [Compound 7a] has a Ki (histamine receptor, H1) of 55.1 nM.
Molecule `O=C(O)CCN1CCC(=C2c3ccccc3COc3ccccc32)CC1` [Compound 8a] has a Ki [1] of over 10000 nM, a Ki (histamine receptor, H1) of 62.5 nM and a Ki [2] of over 10000 nM. For the same molecule, the Ki [3] was over 10000 nM.
Molecule `O=C(O)CCN1CCC(=C(c2ccccc2)c2ccccc2)CC1` [Compound 11a] has a pIC50 [1, 4] of under 5.00, a pKi [1, 5] of under 5.00 and a pKi (histamine receptor, H1; [6]) of 6.92. For the same molecule, the pIC50 [2, 4] was under 5.00, the pKi [2, 7] was under 5.00 and the pIC50 [3, 4] was under 5.00. It also gave a pKi [3, 8] of under 5.00.
Work on `CC(C)OC(=O)CCN1CCC(=C(c2ccccc2)c2ccccc2)CC1` [Compound 11d, Isopropyl 3-[4-(diphenylmethylidene)piperidin-1-yl]propanoate] yielded a pIC50 [1, 4] of 5.22, a pKi [1, 5] of 5.57 and a pKi (histamine receptor, H1; [6]) of 6.83. The pIC50 [2, 4] was 5.10, the pKi [2, 7] was 6.16 and the pIC50 [3, 4] was 6.08. The pKi [3, 8] was 6.57.
Molecule `CC(C)COC(=O)CCN1CCC(=C(c2ccccc2)c2ccccc2)CC1` [Compound 11e, Isobutyl 3-[4-(diphenylmethylidene)piperidin-1-yl]propanoate] has a pIC50 [1, 4] of 5.59, a pKi [1, 5] of 6.15 and a pKi (histamine receptor, H1; [6]) of 6.55. The pIC50 [2, 4] was 5.42, the pKi [2, 7] was 6.54 and the pIC50 [3, 4] was 5.45. The pKi [3, 8] was 5.94.
With `O=C(CCN1CCC(=C(c2ccccc2)c2ccccc2)CC1)OC1CCCC1.O=C(O)C(=O)O` [Compound 11f, Cyclopentyl 3-[4-(diphenylmethylidene)piperidin-1-yl]propanoate, oxalic acid salt] the pKi (histamine receptor, H1; [6]) was 6.38, the pIC50 [2, 4] was 5.66 and the pKi [2, 7] was 6.77. For the same molecule, the “cumulative effect on total sleep time (TST) during the initial 5 hours post-treatment, relative to baseline” value (Male Wistar rats; 11f 30 mg/kg versus Zolpidem 10 mg/kg, rats, FIG. 1(b)) was “induced more TST than Zolpidem”, the locomotor activity (Male Wistar rats; male Wistar rats, IP at CT-18, 10 and 30 mg/kg) was “reduction in locomotor activity” and the “sleep continuity, as assessed by sleep bout length” value (Male Wistar rats; male Wistar rats, IP at CT-18, 10 and 30 mg/kg, relative to vehicle control) was “increased sleep continuity”. For the same molecule, the total sleep time (Male Wistar rats; male Wistar rats, IP at CT-18, both 30 mg/kg and 10 mg/kg) was “significantly increased total sleep time for 3 hours post-treatment” and the “soporific effects (nonREM sleep time, sleep continuity)” value (Male Wistar rats; male Wistar rats, intraperitoneal bolus at CT-18, 11f 30 and 10 mg/kg, 6f and 15f 30 mg/kg) was “robust soporific effects”.
`O=C(CCN1CCC(=C(c2ccccc2)c2ccccc2)CC1)O[C@H]1CCOC1` [Compound 11g] was tested, and the pIC50 (histamine receptor, H1; [9]) was 6.71 and the pKi (histamine receptor, H1; [6]) was 7.06.
With `O=C(CCN1CCC(=C(c2ccccc2)c2ccccc2)CC1)OC1CCOC1` (stereo not drawn) [Compound 11h] the pIC50 [1, 4] was 5.66, the pKi [1, 5] was 6.22 and the pIC50 (histamine receptor, H1; [9]) was 6.70. For the same molecule, the pKi (histamine receptor, H1; [6]) was 7.05, the pIC50 [2, 4] was 5.65 and the pKi [2, 7] was 6.76. It also gave a pIC50 [3, 4] of 5.67 and a pKi [3, 8] of 6.16.
In the case of `O=C(CCN1CCC(=C(c2ccccc2)c2ccccc2)CC1)OC1CCOCC1` [Compound 11i], the pIC50 [1, 4] was 5.63, the pKi [1, 5] was 5.99 and the pIC50 (histamine receptor, H1; [9]) was 6.70. It also gave a pKi (histamine receptor, H1; [6]) of 7.06, a pIC50 [2, 4] of 6.66 and a pKi [2, 7] of 7.77. The pIC50 [3, 4] was 6.66 and the pKi [3, 8] was 7.14.
Work on `Cc1ccc(/C(=C\CN2CCCC2)c2cccc(C(=O)O)n2)cc1` [Compound 16a] yielded a Ki [1] of over 10000 nM, a Ki [2] of over 10000 nM and a pKi [3] of under 5.00.
`O=C(O)CCCN1CCC(OC(c2ccccc2)c2ccccc2)CC1` [Compound 53a] was tested, and the Ki [1] was over 10000 nM, the Ki (histamine receptor, H1) was 16.1 nM and the Ki [2] was over 10000 nM. It also gave a Ki [3] of over 10000 nM.
`O=C(O)CCCN1CCC(=C2c3ccccc3COc3ccccc32)CC1` [Compound 73a] gave a Ki [1] of over 10000 nM, a Ki (histamine receptor, H1) of 42.8 nM and a Ki [2] of over 10000 nM. For the same molecule, the Ki [3] was over 10000 nM.
In the case of `CC(C)(CN1CCC(=C2c3ccccc3COc3ccccc32)CC1)C(=O)O` [Compound 74a], the Ki [1] was over 10000 nM, the Ki (histamine receptor, H1) was 109 nM and the Ki [2] was over 10000 nM. The Ki [3] was over 10000 nM.
Work on `CC(C)(CCN1CCC(=C2c3ccccc3COc3ccccc32)CC1)C(=O)O` [Compound 75a] yielded a Ki [1] of over 10000 nM, a Ki (histamine receptor, H1) of 47.9 nM and a Ki [2] of over 10000 nM. The Ki [3] was 3330 nM.
`CN(C)CCCSC(=N)N` [Dimaprit, reference compound] gave a pKi (histamine receptor, H1; reference compounds, bovine cerebellar membranes, [3H]Pyrilamine 2.0 nM, read-out: Ki) of under 5.00.
For `COc1ccccc1CNCCCCCCNCCCCCCCCNCCCCCCNCc1ccccc1OC` [Methoctramine, reference compound], the pKi ([1]; reference compounds, M3 human recombinant in CHO cells, read-out: Ki) was 6.15 and the pKi [2] was 7.53.
`Cc1scc2c1N(C(=O)CN1CCN(C)CC1)c1ccccc1NC2=O` [Telenzepine] gave a pKi (muscarinic1 binding site) of 7.19.
With `CC(C)OC(=O)CN1CCC(=C2c3ccccc3COc3ccccc32)CC1` [dox7d-oxalate] the Ki [1] was over 10000 nM, the Ki (histamine receptor, H1) was 198 nM and the Ki [2] was over 10000 nM. The Ki [3] was over 10000 nM.
